Experiment [1] concerns the target T1, HBV core protein (C-terminal truncated, 149 aa assembly domain) (Hepatitis B virus genotype D subtype adw, UniProt P03147, C107A/C48A/C61A).
T1 construct: The C-terminal truncated core protein containing 149 amino acids of the N-terminal assembly domain; made in house; host or cells: E. coli BL21 (DE3) Rosetta2, plasmid pET21b
Description: Biochemical capsid assembly assay (fluorescence quenching). The note with it: BODIPY-FL labelled core protein, assembly started with NaCl, read after 6 min; read-out: Assembly Activity. On the procedure:
Biochemical Capsid Assembly Assay
The screening for assembly effector activity was done based on a fluorescence quenching assay published by Zlotnick et al. (2007). The C-terminal truncated core protein containing 149 amino acids of the N-terminal assembly domain fused to a unique cysteine residue at position 150 and was expressed in E. coli using the pET expression system (Merck Chemicals, Darmstadt). Purification of core dimer protein was performed using a sequence of size exclusion chromatography steps. In brief, the cell pellet from 1 L BL21 (DE3) Rosetta2 culture expressing the coding sequence of core protein cloned NdeI/XhoI into expression plasmid pET21b was treated for 1 h on ice with a native lysis buffer (Qproteome Bacterial Protein Prep Kit; Qiagen, Hilden). After a centrifugation step the supernatant was precipitated during 2 h stirring on ice with 0.23 g/ml of solid ammonium sulfate. Following further centrifugation the resulting pellet was resolved in buffer A (100 mM Tris, pH 7.5; 100 mM NaCl; 2 mM DTT) and was subsequently loaded onto a buffer A equilibrated CaptoCore 700 column (GE HealthCare, Frankfurt). The column flow through containing the assembled HBV capsid was dialyzed against buffer N (50 mM NaHCO3 pH 9.6; 5 mM DTT) before urea was added to a final concentration of 3M to dissociate the capsid into core dimers for 1.5 h on ice. The protein solution was then loaded onto a 1 L Sephacryl 5300 column. After elution with buffer N core dimer containing fractions were identified by SDS-PAGE and subsequently pooled and dialyzed against 50 mM HEPES pH 7.5; 5 mM DTT. To improve the assembly capacity of the purified core dimers a second round of assembly and disassembly starting with the addition of 5 M NaCl and including the size exclusion chromatography steps described above was performed. From the last chromatography step core dimer containing fractions were pooled and stored in aliquots at concentrations between 1.5 to 2.0 mg/ml at −80° C.
Immediately before labelling the core protein was reduced by adding freshly prepared DTT in a final concentration of 20 mM. After […] on ice storage buffer and DTT was removed using a Sephadex G-25 column (GE HealthCare, Frankfurt) and 50 mM HEPES, pH 7.5. For labelling 1.6 mg/ml core protein was incubated at 4° C. and darkness overnight with BODIPY-FL maleimide (Invitrogen, Karlsruhe) in a final concentration of 1 mM. After labelling the free dye was removed by an additional desalting step using a Sephadex G-25 column. Labelled core dimers were stored in aliquots at 4° C. In the dimeric state the fluorescence signal of the labelled core protein is high and is quenched during the assembly of the core dimers to high molecular capsid structures. The screening assay was performed in black 384 well microtiter plates in a total assay volume of 10 μl using 50 mM HEPES pH 7.5 and 1.0 to 2.0 μM labelled core protein. Each screening compound was added in 8 different concentrations using a 0.5 log-unit serial dilution starting at a final concentration of 100 μM, 31.6 μM or 10 μM, In any case the DMSO concentration over the entire microtiter plate was 0.5%. The assembly reaction was started by the injection of NaCl to a final concentration of […] which induces the assembly process to approximately 25% of the maximal quenched signal. 6 min after starting the reaction the fluorescence signal was measured using a Clariostar plate reader (BMG Labtech, Ortenberg) with an excitation of 477 nm and an emission of 525 nm. As 100% and 0% assembly control HEPES buffer containing 2.5 M and 0 M NaCl was used. Experiments were performed thrice in triplicates. EC50 values were calculated by non-linear regression analysis using the Graph Pad Prism 6 software (GraphPad Software, La Jolla, USA).

The test system of the next experiment is HBV. The experiment can be described thus: HBV replication assay: HBV DNA from the supernatants of HepAD38 cells. As to conditions: Hepatitis B virus, 144 h, HBV DNA in supernatant by qPCR at day 6, read-out: Cell Activity. In kind it is cell-based. On the procedure:
Determination of HBV DNA from the Supernatants of HepAD38 Cells
The anti-HBV activity was analysed in the stable transfected cell line HepAD38, which has been described to secrete high levels of HBV virion particles (Ladner et al., 1997). In brief, HepAD38 cells were cultured at 37° C. at 5% CO2 and 95% humidity in 200 μl maintenance medium, which was Dulbecco's modified Eagle's medium/Nutrient Mixture F-12 (Gibco, Karlsruhe), 10% fetal bovine serum (PAN Biotech Aidenbach) supplemented with 50 μg/ml penicillin/streptomycin (Gibco, Karlsruhe), 2 mM L-glutamine (PAN Biotech, Aidenbach), 400 μg/ml G418 (AppliChem, Darmstadt) and 0.3 μg/ml tetracycline. Cells were subcultured once a week in a 1:5 ratio, but were usually not passaged more than ten times. For the assay 60,000 cells were seeded in maintenance medium without any tetracycline into each well of a 96-well plate and treated with serial half-log dilutions of test compound. To minimize edge effects the outer 36 wells of the plate were not used but were filled with assay medium. On each assay plate six wells for the virus control (untreated HepAD38 cells) and six wells for the cell control (HepAD38 cells treated with 0.3 μg/ml tetracycline) were allocated, respectively. In addition, one plate set with reference inhibitors like BAY 41-4109, entecavir, and lamivudine instead of screening compounds were prepared in each experiment. In general, experiments were performed thrice in triplicates. At day 6 HBV DNA from 100 μl filtrated cell culture supernatant (AcroPrep Advance 96 Filter Plate, […] Supor membran, PALL GmbH, Dreieich) was automatically purified on the MagNa Pure LC instrument using the MagNA Pure 96 DNA and Viral NA Small Volume Kit (Roche Diagnostics, Mannheim) according to the instructions of the manufacturer. EC50 values were calculated from relative copy numbers of HBV DNA In brief, 5 μl of the 100 μl eluate containing HBV DNA were subjected to PCR LC480 Probes Master Kit (Roche) together with 1 μM antisense primer […], 0.5 μM sense primer […], 0.3 μM hybprobes […]-FL and LC640-[…]-PH (TIBMolBiol, Berlin) to a final volume of […]. The PCR was performed on the Light Cycler 480 real time system (Roche Diagnostics, Mannheim) using the following protocol: Pre-incubation for 1 min at 95° C., amplification: 40 cycles×(10 sec at 95° C., 50 sec at 60° C., 1 sec at 70° C.), cooling for 10 sec at 40° C. Viral load was quantitated against known standards using HBV plasmid DNA of pCH-9/3091 (Nassal et al., 1990, Cell 63: 1357-1363) and the LightCycler 480 SW 1.5 software (Roche Diagnostics, Mannheim) and EC50 values were calculated using non-linear regression with GraphPad Prism 6 (GraphPad Software Inc., La Jolla, USA).
Background: Real-time PCR tracks product formation cycle by cycle.

T1 sequence (P03147 1-150, looked up, stated change not applied): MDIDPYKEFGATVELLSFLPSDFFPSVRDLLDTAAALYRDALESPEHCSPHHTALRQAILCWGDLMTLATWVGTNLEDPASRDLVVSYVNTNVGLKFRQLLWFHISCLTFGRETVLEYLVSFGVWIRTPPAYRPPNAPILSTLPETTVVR

As for `COCC1(N(C)C(=O)c2[nH]nc3c2CN(C(=O)c2cc4c(Cl)cccn4c2)CC3)CC1` [Example 3, 5-(8-chloroindolizine-2-carbonyl)-N-[1-(methoxymethyl)cyclopropyl]-N-methyl-2H,4H,5H,6H,7H-pyrazolo[4,3-c]pyridine-3-carboxamide], the IC50 in experiment [1] is below 5 µM. The EC50 with HBV is below 1 µM. With `COCC1(N(C)C(=O)c2[nH]nc3c2CN(C(=O)c2cc4cccc(Cl)n4c2)CC3)CC1` [Example 4, 5-(5-chloroindolizine-2-carbonyl)-N-[1-(methoxymethyl)cyclopropyl]-N-methyl-2H,4H,5H,6H,7H-pyrazolo[4,3-c]pyridine-3-carboxamide], the IC50 in experiment [1] was in the range of 5 to 10 µM. For the same compound, the EC50 in the experiment on HBV was below 1 µM. `COCC1(N(C)C(=O)c2[nH]nc3c2CN(C(=O)c2cc4c(F)cc(F)cn4c2)CC3)CC1` [Example 5, 5-(6,8-difluoroindolizine-2-carbonyl)-N-[1-(methoxymethyl)cyclopropyl]-N-methyl-2H,4H,5H,6H,7H-pyrazolo[4,3-c]pyridine-3-carboxamide]: the IC50 in experiment [1] is below 5 µM. For the same compound, the EC50 in the experiment with HBV was below 1 µM.

On to `CN(C(=O)c1cnn2c1CN(C(=O)c1cc3c(Cl)cccn3c1)CC2)C1(COC(F)F)CC1` [Example 6, 5-(8-chloroindolizine-2-carbonyl)-N-{1-[(difluoromethoxy)methyl]cyclopropyl}-N-methyl-4H,5H,6H,7H-pyrazolo[1,5-a]pyrazine-3-carboxamide], for which, in experiment [1], the IC50 was below 5 µM. The EC50 with HBV was below 1 µM. For `CN(C(=O)c1cnn2c1CN(C(=O)c1cc3c(F)cc(F)cn3c1)CC2)C1(COC(F)F)CC1` [Example 7, 5-(6,8-difluoroindolizine-2-carbonyl)-N-{1-[(difluoromethoxy)methyl]cyclopropyl}-N-methyl-4H,5H,6H,7H-pyrazolo[1,5-a]pyrazine-3-carboxamide], the IC50 in experiment [1] was below 5 µM. Further, the EC50 in the experiment with HBV is below 1 µM.

Regarding `CN(C(=O)c1cnn2c1CN(C(=O)c1cc3cccc(Cl)n3c1)CC2)C1(COC(F)F)CC1` [Example 8, 5-(5-chloroindolizine-2-carbonyl)-N-{1-[(difluoromethoxy)methyl]cyclopropyl}-N-methyl-4H,5H,6H,7H-pyrazolo[1,5-a]pyrazine-3-carboxamide], the IC50 in experiment [1] is below 5 µM. In addition, in the experiment with HBV, the EC50 is 1 to 10 µM. As for `CC1Cn2ncc(C(=O)N(C)C3(COC(F)F)CC3)c2CN1C(=O)c1cc2c(Cl)cccn2c1` (stereo not drawn) [Example 9, 5-(8-chloroindolizine-2-carbonyl)-N-{1-[(difluoromethoxy)methyl]cyclopropyl}-N,6-dimethyl-4H,5H,6H,7H-pyrazolo[1,5-a]pyrazine-3-carboxamide], in experiment [1], the IC50 was below 5 µM. For the same compound, the EC50 in the experiment with HBV was below 1 µM. Regarding `CC1Cc2[nH]nc(-c3cscn3)c2CN1C(=O)c1cc2c(Cl)cccn2c1` (stereo not drawn) [Example 10, 8-chloro-2-[6-methyl-3-(1,3-thiazol-4-yl)-1H,4H,5H,6H,7H-pyrazolo[4,3-c]pyridine-5-carbonyl]indolizine], the IC50 in experiment [1] is below 5 µM. In addition, in the experiment on HBV, the EC50 is below 1 µM. In the case of `CC1Cc2[nH]nc(-c3cscn3)c2CN1C(=O)c1cc2cccc(C(F)(F)F)n2c1` (stereo not drawn) [Example 12, 2-[6-methyl-3-(1,3-thiazol-4-yl)-1H,4H,5H,6H,7H-pyrazolo[4,3-c]pyridine-5-carbonyl]-5-(trifluoromethyl)indolizine], the IC50 in experiment [1] was below 100 µM. Further, the EC50 in the experiment with HBV fell in the range of 1 to 10 µM. `Cc1cccc2cc(C(=O)N3Cc4c(-c5cscn5)n[nH]c4CC3C)cn12` (stereo not drawn) [Example 16, 5-methyl-2-[6-methyl-3-(1,3-thiazol-4-yl)-1H,4H,5H,6H,7H-pyrazolo[4,3-c]pyridine-5-carbonyl]indolizine]: the IC50 in experiment [1] was in the range of 5 to 10 µM. In addition, the EC50 with HBV is 1 to 10 µM. Take `Cc1cccn2cc(C(=O)N3Cc4c(-c5cscn5)n[nH]c4CC3C)cc12` (stereo not drawn) [Example 17, 8-methyl-2-[6-methyl-3-(1,3-thiazol-4-yl)-1H,4H,5H,6H,7H-pyrazolo[4,3-c]pyridine-5-carbonyl]indolizine]: the IC50 in experiment [1] was below 5 µM. Moreover, the EC50 in the experiment with HBV is below 1 µM.

On to `CC1Cc2[nH]nc(-c3cscn3)c2CN1C(=O)c1cc2c(Cl)cc(Cl)cn2c1` (stereo not drawn) [Example 18, 6,8-dichloro-2-[6-methyl-3-(1,3-thiazol-4-yl)-1H,4H,5H,6H,7H-pyrazolo[4,3-c]pyridine-5-carbonyl]indolizine], for which the IC50 in experiment [1] is 5 to 10 µM. The EC50 with HBV is below 1 µM.

In the case of `CC(NC(=O)c1[nH]nc2c1CN(C(=O)c1cc3c(Cl)cccn3c1)CC2)C(F)(F)F` (stereo not drawn) [Example 49, 5-(8-chloroindolizine-2-carbonyl)-N-(1,1,1-trifluoropropan-2-yl)-2H,4H,5H,6H,7H-pyrazolo[4,3-c]pyridine-3-carboxamide], the EC50 in the experiment with HBV is 1 to 10 µM. Consider `CC(NC(=O)c1cnn2c1CN(C(=O)c1cc3ccccn3c1)CC2)C(F)(F)F` (stereo not drawn) [Example 50, 5-(indolizine-2-carbonyl)-N-(1,1,1-trifluoropropan-2-yl)-4H,5H,6H,7H-pyrazolo[1,5-a]pyrazine-3-carboxamide], for which, in the experiment on HBV, the EC50 was below 1 µM. Regarding `CC(NC(=O)c1[nH]nc2c1CN(C(=O)c1cc3ccccn3c1)CC2)C(F)(F)F` (stereo not drawn) [Example 52, 5-(indolizine-2-carbonyl)-N-[1,1,1-trifluoropropan-2-yl]-2H,4H,5H,6H,7H-pyrazolo[4,3-c]pyridine-3-carboxamide], the EC50 with HBV was below 100 µM.

(Values after patent US20220227789A1, “NOVEL INDOLIZINE-2-CARBOXAMIDES ACTIVE AGAINST THE HEPATITIS B VIRUS (HBV)” (AiCuris GmbH & Co. KG, priority 2019, published 2022).)
